Measurements reported in US11161830B2, “4-pyridone compound or salt thereof, and pharmaceutical composition and formulation including same” (priority 2017, dated 2021).
Where “and” joins values, the source holds several entries; their conditions need not be identical. Equal entries are not always repeated.

Test system: HBV genotype C
Test: Test Example 3-2: in vivo efficacy study in PXB mouse (chimeric mouse with human hepatocytes), first and second study
Parameters: species or system hepatitis B virus
Conditions: first study, individual mice
Experimental: An in vivo efficacy study with a PXB mouse (a chimeric mouse with human hepatocytes) was carried out in PhenixBio Co., Ltd. 19-Week-or-more-old male mice having body weights of 10.5 g or more after the elapse of 13 weeks or more from the infection with HBV genotype C were allocated into the respective groups and used. The studies were carried out twice, and a 21-day administration withdrawal period was provided between the first study and the second study.
The first administration day in the first study was taken as day 0, and the compound of Example 6-5 was orally administered at 1 mg/kg, 3 mg/kg, 10 mg/kg, and 30 mg/kg twice a day, or 0.5% methylcellulose (vehicle) was orally administered once a day for 14 days. Before administration on day 0, day 3, Day 7, and day 10, and on day 14, the blood was collected from the orbital venous plexus under anesthesia with isoflurane.
The first administration day in the second study was taken as day 35, and the compounds of Examples 19-2 and 20-2 were each orally administered at 3 mg/kg twice a day, or 0.5% methylcellulose (vehicle) was orally administered once a day for 14 days. Before administration on day 35, day 38, day 42, and day 45, the blood was collected from the orbital venous plexus under anesthesia with isoflurane. On day 49, the blood was collected from the heart under anesthesia with isoflurane.
The serum was separated from the collected blood and purified with a QIAamp (registered trademark) DNA Blood Mini Kit (manufactured by QIAGEN). The amount of HBV-DNA in the obtained solution was absolutely quantified by a real-time PCR method. In addition, the amount of HBsAg in the serum was absolutely quantified by chemiluminescent enzyme immunoassay using Lumipulse (registered trademark) HBsAg-HQ (manufactured by Fujirebio Inc.).

[1] = orally 1 mg/kg twice a day, Day 0 (before administration), 1 mg/kg
[2] = orally 1 mg/kg twice a day, Day 3, 1 mg/kg
[3] = orally 1 mg/kg twice a day, Day 7, 1 mg/kg
[4] = orally 1 mg/kg twice a day, Day 14, 1 mg/kg
[5] = orally 3 mg/kg twice a day, Day 0 (before administration), 3 mg/kg
[6] = orally 3 mg/kg twice a day, Day 3, 3 mg/kg
[7] = orally 3 mg/kg twice a day, Day 7, 3 mg/kg
[8] = orally 3 mg/kg twice a day, Day 10, 3 mg/kg
[9] = orally 3 mg/kg twice a day, Day 14, 3 mg/kg
[10] = orally 10 mg/kg twice a day, Day 0 (before administration), 10 mg/kg
[11] = orally 10 mg/kg twice a day, Day 3, 10 mg/kg
[12] = orally 10 mg/kg twice a day, Day 7, 10 mg/kg
[13] = orally 10 mg/kg twice a day, Day 10, 10 mg/kg
[14] = orally 10 mg/kg twice a day, Day 14, 10 mg/kg
[15] = orally 30 mg/kg twice a day, Day 0 (before administration), 30 mg/kg
[16] = orally 30 mg/kg twice a day, Day 3, 30 mg/kg
[17] = orally 30 mg/kg twice a day, Day 7, 30 mg/kg
[18] = orally 30 mg/kg twice a day, Day 10, 30 mg/kg
[19] = orally 30 mg/kg twice a day, Day 14, 30 mg/kg

`COCCN1CCN(c2nc3ccc(-n4cc(C(=O)O)c(=O)cc4-c4ccc(N5CCCC5)c(Cl)c4)cc3s2)CC1` [Example 6-5, 6-(3-chloro-4-(pyrrolidin-1-yl)phenyl)-1-(2-(4-(2-methoxyethyl)piperazine-1-yl)benzo[d]thiazol-6-yl)-4-oxo-1,4-dihydropyridine-3-carboxylic acid] was tested, and the HBV-DNA in blood [1] was 8.4E+08 copies/mL and 1.1E+09 copies/mL, the HBsAg in serum [1] was 1,910 IU/mL and 2,498 IU/mL and the HBV-DNA in blood [2] was 1.6E+09 copies/mL and 7.7E+08 copies/mL. For the same compound, the HBsAg in serum [2] was 2,288 IU/mL and 2,694 IU/mL, the HBV-DNA in blood [3] was 1.4E+09 copies/mL and 1.1E+09 copies/mL and the HBsAg in serum [3] was 2,444 IU/mL and 2,663 IU/mL. For the same compound, the HBV-DNA in blood (orally 1 mg/kg twice a day, Day 10) was 1.2E+09 copies/mL, the HBsAg in serum (orally 1 mg/kg twice a day, Day 10, 1 mg/kg) was 1,947 IU/mL and 2,431 IU/mL and the HBV-DNA in blood [4] was 6.8E+08 copies/mL and 6.4E+08 copies/mL. For the same compound, the HBsAg in serum [4] was 1,777 IU/mL and 2,344 IU/mL, the HBV-DNA in blood [5] was 1.8E+09 copies/mL and 9.8E+08 copies/mL and the HBsAg in serum [5] was 2,722 IU/mL and 2,314 IU/mL. The HBV-DNA in blood [6] was 5.7E+08 copies/mL and 5.6E+08 copies/mL, the HBsAg in serum [6] was 972 IU/mL and 1,059 IU/mL and the HBV-DNA in blood [7] was 4.9E+08 copies/mL and 4.0E+08 copies/mL. The HBsAg in serum [7] was 859 IU/mL and 876 IU/mL, the HBV-DNA in blood [8] was 5.7E+08 copies/mL and 6.2E+08 copies/mL and the HBsAg in serum [8] was 959 IU/mL and 1,025 IU/mL. For the same compound, the HBV-DNA in blood [9] was 6.1E+08 copies/mL and 5.2E+08 copies/mL, the HBsAg in serum [9] was 1,012 IU/mL and 837 IU/mL and the HBV-DNA in blood [10] was 1.1E+09 copies/mL and 1.2E+09 copies/mL. For the same compound, the HBsAg in serum [10] was 2,500 IU/mL and 2,409 IU/mL, the HBV-DNA in blood [11] was 8.0E+08 copies/mL and 4.5E+08 copies/mL and the HBsAg in serum [11] was 595 IU/mL and 421 IU/mL. For the same compound, the HBV-DNA in blood [12] was 3.3E+08 copies/mL and 4.0E+08 copies/mL, the HBsAg in serum [12] was 445 IU/mL and 366 IU/mL and the HBV-DNA in blood [13] was 7.3E+08 copies/mL and 3.9E+08 copies/mL. The HBsAg in serum [13] was 394 IU/mL and 329 IU/mL, the HBV-DNA in blood [14] was 4.9E+08 copies/mL and 3.6E+08 copies/mL and the HBsAg in serum [14] was 368 IU/mL and 398 IU/mL. For the same compound, the HBV-DNA in blood [15] was 1.6E+09 copies/mL and 1.2E+09 copies/mL, the HBsAg in serum [15] was 2,291 IU/mL and 2,328 IU/mL and the HBV-DNA in blood [16] was 8.3E+08 copies/mL and 4.4E+08 copies/mL. The HBsAg in serum [16] was 673 IU/mL and 592 IU/mL, the HBV-DNA in blood [17] was 7.5E+08 copies/mL and 3.7E+08 copies/mL and the HBsAg in serum [17] was 458 IU/mL and 370 IU/mL. The HBV-DNA in blood [18] was 8.0E+08 copies/mL and 4.9E+08 copies/mL, the HBsAg in serum [18] was 359 IU/mL and 392 IU/mL and the HBV-DNA in blood [19] was 6.1E+08 copies/mL and 2.6E+08 copies/mL. For the same compound, the HBsAg in serum [19] was 408 IU/mL and 268 IU/mL.
